We go through 62 molecules from the Kinase Knowledgebase extract (Sharma et al. 2016).

One assay deals with EGFR (UniProt P00533).
The target of the next assay is EGFR (murine) (UniProt P00533). As to conditions: nih3t3.
Sequence of EGFR (murine) (P00533 whole entry, looked up): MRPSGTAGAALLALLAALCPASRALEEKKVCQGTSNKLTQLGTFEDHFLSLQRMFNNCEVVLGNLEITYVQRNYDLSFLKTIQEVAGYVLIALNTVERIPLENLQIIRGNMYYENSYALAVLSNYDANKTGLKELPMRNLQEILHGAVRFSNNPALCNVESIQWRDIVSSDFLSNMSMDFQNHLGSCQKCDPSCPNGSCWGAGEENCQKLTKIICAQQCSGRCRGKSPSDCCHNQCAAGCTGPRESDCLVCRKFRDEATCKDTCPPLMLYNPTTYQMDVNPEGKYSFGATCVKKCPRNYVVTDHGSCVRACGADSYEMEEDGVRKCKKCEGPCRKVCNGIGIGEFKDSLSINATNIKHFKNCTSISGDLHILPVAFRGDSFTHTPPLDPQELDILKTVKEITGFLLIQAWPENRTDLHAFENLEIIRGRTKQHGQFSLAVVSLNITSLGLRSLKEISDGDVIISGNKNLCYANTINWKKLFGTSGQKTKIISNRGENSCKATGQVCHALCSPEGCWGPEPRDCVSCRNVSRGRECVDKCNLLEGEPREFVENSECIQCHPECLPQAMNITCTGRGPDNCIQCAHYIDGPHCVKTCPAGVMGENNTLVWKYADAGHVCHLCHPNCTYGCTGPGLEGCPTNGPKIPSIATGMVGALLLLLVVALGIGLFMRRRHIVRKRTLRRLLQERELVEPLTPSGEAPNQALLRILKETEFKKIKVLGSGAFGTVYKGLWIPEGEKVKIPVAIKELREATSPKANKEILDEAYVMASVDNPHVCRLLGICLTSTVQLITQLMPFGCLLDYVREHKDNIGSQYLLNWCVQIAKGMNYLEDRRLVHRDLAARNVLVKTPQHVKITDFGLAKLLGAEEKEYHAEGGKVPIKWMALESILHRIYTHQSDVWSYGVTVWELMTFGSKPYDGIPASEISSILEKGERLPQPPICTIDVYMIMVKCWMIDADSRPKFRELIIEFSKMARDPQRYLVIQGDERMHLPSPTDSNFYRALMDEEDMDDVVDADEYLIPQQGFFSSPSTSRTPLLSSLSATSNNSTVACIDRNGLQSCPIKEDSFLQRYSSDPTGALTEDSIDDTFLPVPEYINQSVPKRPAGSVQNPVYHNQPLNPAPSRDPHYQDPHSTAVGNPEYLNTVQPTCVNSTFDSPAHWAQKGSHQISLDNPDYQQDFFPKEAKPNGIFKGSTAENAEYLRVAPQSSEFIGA

Sequence of EGFR (P00533 whole entry, looked up): as above

The term IC50 denotes the midpoint of a concentration-inhibition curve. Higher therefore signals weaker potency. `O=C1Nc2cccc(CCO)c2/C1=C/c1ccc2[nH]ccc2c1` returned an IC50 on EGFR greater than 100 µM.

As for `COc1ccc2c(c1)NC(=O)C2Cc1ccc(OC)c(-c2ccsc2)c1` (configuration not stated), the half-maximal inhibitory concentration (IC50) at EGFR is greater than 100 µM.

The molecule `O=C1Cc2c(CCOC(=O)Nc3ccccc3-c3ccccc3)cccc2N1` displayed an IC50 at EGFR greater than 100 µM.

In the case of `COc1ccc(CC2C(=O)Nc3ccc(F)cc32)cc1C1CCCC1` (configuration not stated), the IC50 against EGFR is greater than 100 µM.

As for `O=C1Cc2c(CCOc3cncc(Cl)c3)cccc2N1`, on EGFR, the IC50 is greater than 100 µM.

As to `O=C1Cc2c(CCOc3cccc(-c4ccccc4)c3)cccc2N1`, the IC50 on EGFR is greater than 100 µM.

Regarding `Cc1[nH]c(CC2C(=O)Nc3ccccc32)c(C)c1CCCN(C)C` (configuration not stated), the 50% inhibitory concentration (IC50) is greater than 100 µM against EGFR and greater than 50 µM in the assay with EGFR (murine).

For `COc1ccc(/C(=C2/C(=O)Nc3ccccc32)c2[nH]c(C)cc2C)cc1`, the IC50 in the assay with EGFR (murine) was greater than 50 µM.

At EGFR, `COc1ccc(/C=C2/C(=O)Nc3cc(-c4ccsc4)ccc32)cc1-c1cccs1` registered an IC50 greater than 100 µM.

In the case of `Cc1cccc(/C=C2\C(=O)Nc3cccc(CCO)c32)n1`, at EGFR, the IC50 is greater than 100 µM.

With `O=C1Nc2ccccc2C1Cc1ccc2[nH]ccc2c1` (configuration not stated), the values for the IC50 on EGFR and with EGFR (murine) were greater than 100 µM and greater than 50 µM, respectively.

At EGFR, `CC(C)c1ccc(OCCc2cccc3c2CC(=O)N3)cc1` came in with a concentration for half-maximal inhibition (IC50) greater than 100 µM.

With `O=C1Nc2cc(-c3ccsc3)ccc2/C1=C\c1ccccc1O`, the IC50 against EGFR is greater than 100 µM.

Take `COc1ccc(/C=C2/C(=O)Nc3cc(-c4cccnc4)ccc32)cc1-c1cccs1`: the IC50 against EGFR was greater than 100 µM.

As for `COc1ccc(CC2C(=O)Nc3cc(NC(C)=O)ccc32)cc1-c1cccs1` (configuration not stated), the IC50 on EGFR is greater than 100 µM; with EGFR (murine), greater than 50 µM.

As to `O=C(Nc1ccc2c(c1)NC(=O)C2Cc1cc(Cl)ccc1O)C1CCCC1` (configuration not stated), the concentration for half-maximal inhibition (IC50) on EGFR was greater than 100 µM.

As for `O=C1Nc2ccc(F)cc2C1Cc1ccc(O)c(C2CCCC2)c1` (configuration not stated), the IC50 against EGFR is greater than 100 µM; in the assay with EGFR (murine) it was greater than 50 µM.

Turning to `O=C1Nc2cccc(CCO)c2/C1=C\c1ccc(Br)cc1`, the IC50 against EGFR was greater than 100 µM.

As to `COc1cc(C)c(CC2C(=O)Nc3ccccc32)cc1C(C)C` (configuration not stated), the IC50 on EGFR is greater than 100 µM.

At EGFR, `Cc1[nH]c(CC2C(=O)Nc3ccc(Cl)cc32)c(C)c1CCCN(C)C` (configuration not stated) yielded an IC50 greater than 100 µM.

As to `Cc1cccc(CC2C(=O)Nc3cccc(CCO)c32)n1` (configuration not stated), the IC50 at EGFR is greater than 100 µM; with EGFR (murine) it was greater than 50 µM.

As to `COc1c(C(C)C)cc(CC2C(=O)Nc3ccccc32)cc1C(C)C` (configuration not stated), the IC50 was greater than 100 µM at EGFR and greater than 50 µM with EGFR (murine).

Turning to `CC(C)c1cccc(OCCc2cccc3c2CC(=O)N3)c1`, on EGFR, the IC50 was greater than 100 µM.

At EGFR, `CC(C)NC(=O)OCCc1cccc2c1CC(=O)N2` came in with a half-inhibitory concentration (IC50) greater than 100 µM.

Regarding `CC(C)c1cc(CC2C(=O)Nc3ccc(Cl)cc32)cc(C(C)C)c1OCCN1CCOCC1` (configuration not stated), the IC50 against EGFR is greater than 100 µM.

At EGFR, `CC(C)(C)c1cc(CC2C(=O)Nc3ccc(Cl)cc32)cc(Br)c1O` (configuration not stated) gave an IC50 greater than 100 µM.

On to `O=C1Cc2c(CCOC(=S)Nc3ccccc3)cccc2N1`, for which the 50% inhibitory concentration (IC50) at EGFR was greater than 100 µM.

With `Cc1[nH]c(/C=C2\C(=O)Nc3cccc(CCO)c32)c(C)c1CCCN(C)C`, the IC50 was greater than 100 µM against EGFR and 25.3 µM with EGFR (murine).

For the molecule `O=C1Cc2c(CCOC(=O)NC3CCCCC3)cccc2N1`, the IC50 at EGFR is greater than 100 µM.

`O=C1Nc2cc(-c3cccnc3)ccc2/C1=C\c1ccccc1O` had a half-maximal inhibitory concentration (IC50) on EGFR greater than 100 µM.

The molecule `COc1ccc(-c2cc(CC3C(=O)Nc4ccccc43)c(O)cc2OC)cc1` (configuration not stated) returned an IC50 against EGFR greater than 100 µM.

The molecule `O=C1Cc2c(CCOC(=O)NS(=O)(=O)c3ccccc3)cccc2N1` came in with a 50% inhibitory concentration (IC50) against EGFR greater than 100 µM.

Take `O=C1Nc2cccc(CCO)c2C1Cc1ccccc1` (configuration not stated): the IC50 against EGFR is greater than 100 µM.

At EGFR, `CC(C)(C)NC(=O)OCCc1cccc2c1CC(=O)N2` showed an IC50 greater than 100 µM.

Turning to `O=C1Nc2cccc(CCO)c2/C1=C/c1ccccn1`, the IC50 against EGFR is greater than 100 µM; with EGFR (murine), 3 µM.

The molecule `O=C1Nc2cc(-c3cccs3)ccc2/C1=C\c1ccccc1O` returned an IC50 at EGFR greater than 100 µM.

In the case of `O=C1Nc2cccc(CCO)c2C1Cc1ccc(Br)cc1` (configuration not stated), the IC50 against EGFR was greater than 100 µM.

On to `COc1ccc(CC2C(=O)Nc3cc(-c4ccccc4)ccc32)c(O)c1` (configuration not stated), for which the values for the IC50 at EGFR and with EGFR (murine) were greater than 100 µM and greater than 50 µM, respectively.

Molecule `COc1ccccc1-c1ccc2c(c1)NC(=O)C2Cc1[nH]c(C)c(CCCN(C)C)c1C` (configuration not stated) displayed a half-maximal inhibitory concentration (IC50) against EGFR greater than 100 µM.

The molecule `COc1ccc(/C=C2/C(=O)Nc3cc(-c4cccs4)ccc32)cc1-c1cccs1` gave an IC50 at EGFR greater than 100 µM.

On to `CCNC(=O)OCCc1cccc2c1CC(=O)N2`, for which the IC50 against EGFR is greater than 100 µM.

At EGFR, `Cc1[nH]c(/C=C2/C(=O)Nc3cc(-c4cccnc4)ccc32)c(C)c1CCCN(C)C` yielded an IC50 of 12.1 µM. In other words, the double-digit micromolar range.

Molecule `COCCc1cccc2c1CC(=O)N2` came in with a 50% inhibitory concentration (IC50) on EGFR greater than 100 µM.

On to `O=C(Nc1ccc2c(c1)NC(=O)C2Cc1cc(Cl)cc(Cl)c1O)C1CCCC1` (configuration not stated), for which the concentration for half-maximal inhibition (IC50) against EGFR is greater than 100 µM.

Take `O=C1Cc2c(CCOC(=O)Nc3ccccc3)cccc2N1`: at EGFR, the IC50 is greater than 100 µM.

Take `Cc1[nH]c(CC2C(=O)Nc3ccc(Br)cc32)c(C)c1CCCN(C)C` (configuration not stated): at EGFR, the IC50 is greater than 100 µM.

At EGFR, `CC(=O)Nc1ccc2c(c1)NC(=O)C2Cc1ccc(OCCN2CCOCC2)c(C2CCCCC2)c1` (configuration not stated) gave a 50% inhibitory concentration (IC50) greater than 100 µM.

For the molecule `Cc1[nH]c(/C=C2/C(=O)Nc3cc(-c4cccs4)ccc32)c(C)c1CCCN(C)C`, the IC50 against EGFR was greater than 100 µM.

With `Cc1cccc2c1C(Cc1ccc3[nH]ccc3c1)C(=O)N2` (configuration not stated), the IC50 at EGFR was greater than 100 µM; with EGFR (murine), greater than 50 µM.

Regarding `COc1ccc(OCCc2cccc3c2CC(=O)N3)cc1`, the IC50 against EGFR is greater than 100 µM.

Take `COc1cccc(-c2ccc3c(c2)NC(=O)C3Cc2ccccc2O)c1` (configuration not stated): the IC50 is greater than 100 µM at EGFR and greater than 50 µM in the assay with EGFR (murine).

Consider `Cc1[nH]c(/C=C2\C(=O)Nc3cccc(CCOc4cccc(C(C)C)c4)c32)c(C)c1CCCN(C)C`, for which the IC50 at EGFR was greater than 100 µM.

`COc1ccc(CC2C(=O)Nc3ccc(CCN4CCOCC4)cc32)cc1-c1ccsc1` (configuration not stated): the results for the IC50 against EGFR and with EGFR (murine) were greater than 100 µM and greater than 50 µM, respectively.

As to `COc1ccc(/C=C2\C(=O)Nc3cccc(CCO)c32)cc1-c1cccs1`, the IC50 against EGFR was greater than 100 µM.

`COc1ccc(-c2ccc3c(c2)NC(=O)C3Cc2[nH]c(C)c(CCCN(C)C)c2C)cc1` (configuration not stated): the concentration for half-maximal inhibition (IC50) at EGFR was greater than 100 µM.

The molecule `CC(C)c1ccccc1OCCc1cccc2c1CC(=O)N2` gave an IC50 at EGFR greater than 100 µM.

As to `Cc1ccc(O)c(/C=C2\C(=O)Nc3cccc(CCO)c32)n1`, the IC50 was greater than 100 µM on EGFR and greater than 50 µM in the assay with EGFR (murine).

On to `COc1cccc(-c2ccc3c(c2)NC(=O)C3Cc2[nH]c(C)c(CCCN(C)C)c2C)c1` (configuration not stated), for which the IC50 on EGFR came out at 48.7 µM.

For the molecule `O=C1Nc2cc(-c3ccccc3)ccc2C1Cc1cccc(F)c1O` (configuration not stated), the IC50 on EGFR was greater than 100 µM; in the assay with EGFR (murine), greater than 50 µM.

Molecule `CCOCCc1cccc2c1CC(=O)N2` returned an IC50 at EGFR greater than 100 µM.

On EGFR, `O=C1Nc2cc(-c3ccccc3)ccc2C1Cc1cc(Br)ccc1O` (configuration not stated) returned an IC50 greater than 100 µM.

Turning to `Cc1[nH]c(/C=C2\C(=O)Nc3cccc(CCOc4ccc(C(C)C)cc4)c32)c(C)c1CCC(=O)O`, the IC50 is greater than 100 µM on EGFR and greater than 50 µM in the assay with EGFR (murine).
